Patent US20230399342A1 (Incyte Corporation, priority 2022, published 2023)

Legend:
DGKζ = DGKζ (Homo sapiens (Human), UniProt Q13574); assay: In vitro DGKζ inhibition assay (ADP-Glo); format: biochemical; details: His-tagged human recombinant enzyme, 0.4 nM DGK, 30 μM ATP, 20 μM DLG, 90 minute incubation
Protocol: (§1) The DGKα and DGKξ biochemical reactions were performed using His-tagged human recombinant enzymes (Signal Chem, DGKα, #D21-1OBH; DGKξ, #D30-10H)) and DLG (Dilauroyl-sn-glycerol) lipid substrate (Signal Chem, #D430-59). ADP-Glo assay was performed using ADP-Glog™ kinase Assay kit (Promega, #V9104). The reactions were carried out in assay buffer containing 40 mM Tris, pH 7.5, 0.1% CHAPS, 0.1% Prionex, 40 mM NaCl, 5 mM MgCl2, 1 mM CaCl2, and 1 mM DTT. DGKα reactions contained 0.1 nM DGKα, 50 μM ATP, and 20 μM DLG. And DGKC reactions contained 0.4 nM DGK, 30 μM ATP, and 20 μM DLG.
(§2) For compound inhibition studies, 40 nL test compound in DMSO was added to wells of white polystyrene plates in 384-well (Greiner, #784075) or 1536-well format (Greiner, #782075). Compounds were added with top concentration of 2 mM with 11 point, 3-fold dilution series. Enzyme solution (contains 2×DGK enzyme concentration in Ix assay buffer) was added to the plate in 2 μL/well volume, followed by 2 μL/well of substrate solution (contains 2×concentration of ATP and DLG substrate in Ix assay buffer). Plates were then centrifuged for 1 min at 1200 RPM and sealed or lidded. For 4 μL reaction volume, test compounds were therefore diluted 100× to final top concentration of 20 μM. After 90 minute incubation, reactions were quenched by addition of 2 μL/well Promega ADP-Glo Reagent, followed by centrifugation and lidding. After 60 min incubation, 2 μL/well Promega Kinase Detection Reagent was added, plates centrifuged, and incubated for 30 min. Plates were then read using Luminescence method on BMG PHERAstar FSX plate reader. Percent inhibition was calculated and IC50s were determined using 4-parameter fit in Genedata Screener. Labcyte Echo acoustic dispenser was used for compound addition, and Formulatrix Tempest liquid handler was used for all reagent dispenses.

DGKα = DGKα (Homo sapiens (Human), UniProt P23743); assay: In vitro DGKα inhibition assay (ADP-Glo); format: biochemical; details: His-tagged human recombinant enzyme, 0.1 nM DGKα, 50 μM ATP, 20 μM DLG, 90 minute incubation
Protocol: as §1, §2

Sequence of DGKα (P23743 whole entry): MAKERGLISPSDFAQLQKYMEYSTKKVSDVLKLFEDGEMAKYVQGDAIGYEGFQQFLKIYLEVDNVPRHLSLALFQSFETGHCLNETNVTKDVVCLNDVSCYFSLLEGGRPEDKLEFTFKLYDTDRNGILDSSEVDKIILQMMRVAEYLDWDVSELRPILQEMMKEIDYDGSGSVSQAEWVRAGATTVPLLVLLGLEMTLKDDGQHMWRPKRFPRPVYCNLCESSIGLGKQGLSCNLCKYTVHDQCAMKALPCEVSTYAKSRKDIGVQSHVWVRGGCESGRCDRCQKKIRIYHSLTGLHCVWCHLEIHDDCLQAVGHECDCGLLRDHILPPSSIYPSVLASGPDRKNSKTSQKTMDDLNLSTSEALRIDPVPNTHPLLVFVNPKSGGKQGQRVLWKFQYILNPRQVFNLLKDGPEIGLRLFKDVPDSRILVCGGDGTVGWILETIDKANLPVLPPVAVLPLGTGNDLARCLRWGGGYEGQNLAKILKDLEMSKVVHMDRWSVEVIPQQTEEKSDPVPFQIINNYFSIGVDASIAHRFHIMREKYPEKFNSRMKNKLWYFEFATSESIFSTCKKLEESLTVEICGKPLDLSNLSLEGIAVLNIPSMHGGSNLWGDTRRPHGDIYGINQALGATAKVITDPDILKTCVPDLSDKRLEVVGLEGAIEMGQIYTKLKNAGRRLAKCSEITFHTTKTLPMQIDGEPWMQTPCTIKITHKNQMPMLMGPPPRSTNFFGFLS
Sequence of DGKζ (Q13574 whole entry): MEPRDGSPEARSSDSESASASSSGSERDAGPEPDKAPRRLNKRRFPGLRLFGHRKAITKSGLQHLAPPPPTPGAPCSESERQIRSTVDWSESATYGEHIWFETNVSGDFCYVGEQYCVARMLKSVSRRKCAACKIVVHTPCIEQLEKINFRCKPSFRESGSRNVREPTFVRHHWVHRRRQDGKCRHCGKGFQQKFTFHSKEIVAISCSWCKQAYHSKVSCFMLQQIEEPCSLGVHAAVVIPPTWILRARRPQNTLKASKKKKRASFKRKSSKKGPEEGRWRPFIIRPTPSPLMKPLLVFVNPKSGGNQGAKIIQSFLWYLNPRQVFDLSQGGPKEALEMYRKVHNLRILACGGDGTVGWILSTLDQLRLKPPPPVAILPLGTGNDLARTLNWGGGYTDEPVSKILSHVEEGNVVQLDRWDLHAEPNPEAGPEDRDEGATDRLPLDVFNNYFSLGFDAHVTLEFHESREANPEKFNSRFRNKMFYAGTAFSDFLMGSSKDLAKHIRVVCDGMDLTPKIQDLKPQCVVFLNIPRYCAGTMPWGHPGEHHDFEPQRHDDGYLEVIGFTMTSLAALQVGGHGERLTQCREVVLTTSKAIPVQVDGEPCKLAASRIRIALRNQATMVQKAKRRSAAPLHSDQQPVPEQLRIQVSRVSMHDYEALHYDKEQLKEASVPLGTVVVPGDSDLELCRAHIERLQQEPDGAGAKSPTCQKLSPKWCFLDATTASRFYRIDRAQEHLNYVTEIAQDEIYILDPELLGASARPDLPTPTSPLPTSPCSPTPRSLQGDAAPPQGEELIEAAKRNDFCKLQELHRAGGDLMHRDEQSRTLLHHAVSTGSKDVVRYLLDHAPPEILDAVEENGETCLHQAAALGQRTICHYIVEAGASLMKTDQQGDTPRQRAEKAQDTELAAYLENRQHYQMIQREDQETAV

Compound	IC50 (DGKζ)	IC50 (DGKα)
CC[C@@H]1CN(c2nc3nncn3c3c2nnn3C[C@@H]2CCCO2)[C@@H](C)CN1C(c1ccc(F)cc1)C1CC(F)(F)C1 (single isomer, unassigned) [Example 120]	≤ 20 nM	≤ 20 nM
COC[C@@H]1CN(c2nc3nncn3c3scnc23)[C@@H](C)CN1C(c1ccc(F)cc1)c1ccc(F)cc1 [Example 13, 4-((2S,5S)-4-(Bis(4-fluorophenyl)methyl)-5-(methoxymethyl)-2-methylpiperazin-1-yl)thiazolo[4,5-e][1,2,4]triazolo[4,3-a]pyrimidine]	20 to 200 nM	≤ 20 nM
Cc1nc2c(N3C[C@@H](C)N(C(c4ccc(Cl)cc4)c4ccc(F)c(Cl)c4)C[C@@H]3C)nc3nncn3c2n1C[C@@H]1CCCO1 (single isomer, unassigned) [Example 140]	≤ 20 nM	≤ 20 nM
C[C@@H]1CN(c2nc3nncn3c3c2ncn3CCN(C)C)[C@@H](C)CN1C(c1ccc(Cl)cc1)C1CC(F)(F)C1 (single isomer, unassigned) [Example 64]	≤ 20 nM	≤ 20 nM
Cc1nc2c(N3C[C@@H](C)N(C(c4ccc(Br)c(F)c4)C4CC(F)(F)C4)C[C@@H]3C)nc3nncn3c2n1C[C@@H]1CCCO1 (stereo partly drawn) [Example 63, 4-((2S,5R)-4-((4-Bromo-3-fluorophenyl)(3,3-difluorocyclobutyl)methyl)-2,5-dimethylpiperazin-1-yl)-2-methyl-1-(((S)-tetrahydrofuran-2-yl)methyl)-1H-[1,2,4]triazolo[3,4-b]purine]	≤ 20 nM	≤ 20 nM
C[C@@H]1CN(c2nc3nncn3c3sc(-c4cn[nH]c4)nc23)[C@@H](C)CN1C(c1ccc(F)cc1)c1ccc(F)cc1 [Example 5, 4-((2S,5R)-4-(Bis(4-fluorophenyl)methyl)-2,5-dimethylpiperazin-1-yl)-2-(1H-pyrazol-4-yl)thiazolo[4,5-e][1,2,4]triazolo[4,3-a]pyrimidine]	> 2000 nM	≤ 20 nM
Cc1nc2c(N3C[C@@H](C)N(C(c4cc(F)c(F)c(F)c4)C4CC(F)(F)C4)C[C@@H]3C)nc3nncn3c2n1C[C@@H]1CCCO1 (stereo partly drawn) [Example 52, 4-((2S,5R)-4-((3,3-Difluorocyclobutyl)(3,4,5-trifluorophenyl)methyl)-2,5-dimethylpiperazin-1-yl)-2-methyl-1-(((S)-tetrahydrofuran-2-yl)methyl)-1H-[1,2,4]triazolo[3,4-b]purine]	≤ 20 nM	≤ 20 nM
Cc1nc2c(N3C[C@@H](C)N([C@H](c4ccc(F)cc4)c4ccc(F)c(C(F)(F)F)n4)C[C@@H]3C)nc3nncn3c2n1C[C@@H]1CCCO1 (single isomer, unassigned) [Example 104]	≤ 20 nM	≤ 20 nM
Cc1nc2c(N3C[C@@H](C)N(C(c4ccc(F)c(C(F)(F)F)c4)C(C)C)C[C@@H]3C)nc3nncn3c2n1C[C@@H]1CCCO1 (stereo partly drawn) [Example 84, 4-((2S,5R)-4-(1-(4-Fluoro-3-(trifluoromethyl)phenyl)-2-methylpropyl)-2,5-dimethylpiperazin-1-yl)-2-methyl-1-(((S)-tetrahydrofuran-2-yl)methyl)-1H-[1,2,4]triazolo[3,4-b]purine]	≤ 20 nM	≤ 20 nM
CC[C@@H]1CN(c2nc3nncn3c3c2nnn3C[C@@H]2CCCO2)[C@@H](C)CN1C(c1ccc(Cl)cc1)C1CC(F)(F)C1 (stereo partly drawn) [Example 121, 4-((2S,5R)-4-((4-Chlorophenyl)(3,3-difluorocyclobutyl)methyl)-5-ethyl-2-methylpiperazin-1-yl)-1-(((S)-tetrahydrofuran-2-yl)methyl)-1H-[1,2,3]triazolo[4,5-e][1,2,4]triazolo[4,3-a]pyrimidine]	≤ 20 nM	≤ 20 nM
Cc1nc2c(N3C[C@@H](C)N(C(c4ccc(C(F)(F)F)c(F)c4)C4CC(F)(F)C4)C[C@@H]3C)nc3nncn3c2n1C[C@@H]1CCCO1 (single isomer, unassigned) [Example 45]	≤ 20 nM	≤ 20 nM
C[C@@H]1CN(c2nc3nncn3c3c2nnn3C[C@@H]2CCCO2)[C@@H](C)CN1C(c1ccc(Br)cc1)c1ccc(Br)cc1 [Example 111, 4-((2S,5R)-4-(Bis(4-bromophenyl)methyl)-2,5-dimethylpiperazin-1-yl)-1-(((S)-tetrahydrofuran-2-yl)methyl)-1H-[1,2,3]triazolo[4,5-e][1,2,4]triazolo[4,3-a]pyrimidine]	≤ 20 nM	≤ 20 nM
Cc1cc(C(C2CC(F)(F)C2)N2C[C@H](C)N(c3nc4nncn4c4c3nc(C)n4C[C@@H]3CCCO3)C[C@H]2C)ccc1C(F)(F)F (stereo partly drawn) [Example 55, 4-((2S,5R)-4-((3,3-Difluorocyclobutyl)(3-methyl-4-(trifluoromethyl)phenyl)methyl)-2,5-dimethylpiperazin-1-yl)-2-methyl-1-(((S)-tetrahydrofuran-2-yl)methyl)-1H-[1,2,4]triazolo[3,4-b]purine]	≤ 20 nM	≤ 20 nM
C[C@@H]1CN(c2nc3nncn3c3c2ncn3CCN(C)C)[C@@H](C)CN1C(c1ccc(Br)cc1)c1ccc(Br)cc1 [Example 109, 2-(4-((2S,5R)-4-(Bis(4-bromophenyl)methyl)-2,5-dimethylpiperazin-1-yl)-1H-[1,2,4]triazolo[3,4-b]purin-1-yl)-N,N-dimethylethan-1-amine]	≤ 20 nM	≤ 20 nM
Cc1cc(C(C2CC(F)(F)C2)N2C[C@H](C)N(c3nc4nncn4c4c3nc(C)n4C[C@@H]3CCCO3)C[C@H]2C)ccc1Cl (stereo partly drawn) [Example 51, 4-((2S,5R)-4-((4-Chloro-3-methylphenyl)(3,3-difluorocyclobutyl)methyl)-2,5-dimethylpiperazin-1-yl)-2-methyl-1-(((S)-tetrahydrofuran-2-yl)methyl)-1H-[1,2,4]triazolo[3,4-b]purine]	≤ 20 nM	≤ 20 nM
Cc1nc2c(N3C[C@@H](C)N(C(c4ccc(C(F)(F)F)cc4)C4CCC(F)(F)CC4)C[C@@H]3C)nc3nncn3c2n1C[C@@H]1CCCO1 (stereo partly drawn) [Example 117, 4-((2S,5R)-4-((4,4-Difluorocyclohexyl)(4-(trifluoromethyl)phenyl)methyl)-2,5-dimethylpiperazin-1-yl)-2-methyl-1-(((S)-tetrahydrofuran-2-yl)methyl)-1H-[1,2,4]triazolo[3,4-b]purine]	≤ 20 nM	≤ 20 nM
Cc1nc2c(N3C[C@@H](C)N([C@@H](c4ccc(Cl)cc4)C(C)C)C[C@@H]3C)nc3nncn3c2n1C[C@@H]1CCCO1 [Example 89, 4-((2S,5R)-4-((R)-1-(4-chlorophenyl)-2-methylpropyl)-2,5-dimethylpiperazin-1-yl)-2-methyl-1-(((S)-tetrahydrofuran-2-yl)methyl)-1H-[1,2,4]triazolo[3,4-b]purine]	≤ 20 nM	≤ 20 nM
CC[C@@H]1CN(c2nc3nncn3c3c2nnn3C[C@H]2CCCO2)[C@@H](C)CN1C(c1ccc(Cl)cc1)c1ccc(Cl)cc1 [Example 40, 4-((2S,5R)-4-(Bis(4-chlorophenyl)methyl)-5-ethyl-2-methylpiperazin-1-yl)-1-(((R)-tetrahydrofuran-2-yl)methyl)-1H-[1,2,3]triazolo[4,5-e][1,2,4]triazolo[4,3-a]pyrimidine]	≤ 20 nM	≤ 20 nM
Cc1nc2c(N3C[C@@H](C)N([C@@H](c4ccc(OC(F)F)cc4)C(C)C)C[C@@H]3C)nc3nncn3c2n1C[C@@H]1CCCO1 [Example 80, 4-((2S,5R)-4-((R)-1-(4-(difluoromethoxy)phenyl)-2-methylpropyl)-2,5-dimethylpiperazin-1-yl)-2-methyl-1-(((S)-tetrahydrofuran-2-yl)methyl)-1H-[1,2,4]triazolo[3,4-b]purine]	20 to 200 nM	≤ 20 nM
Cc1nc2c(N3C[C@@H](C)N([C@@H](c4ccc(C(F)(F)F)cc4F)C(C)C)C[C@@H]3C)nc3nncn3c2n1C[C@@H]1CCCO1 [Example 72, 4-((2S,5R)-4-((R)-1-(2-fluoro-4-(trifluoromethyl)phenyl)-2-methylpropyl)-2,5-dimethylpiperazin-1-yl)-2-methyl-1-(((S)-tetrahydrofuran-2-yl)methyl)-1H-[1,2,4]triazolo[3,4-b]purine]	≤ 20 nM	≤ 20 nM
C[C@@H]1CN(c2nc3nncn3c3ccsc23)[C@@H](C)CN1C(c1ccc(F)cc1)c1ccc(F)cc1 [Example 8, 5-((2S,5R)-4-(Bis(4-fluor ophenyl)methyl)-2,5-dimethylpiperazin-1-yl)thieno[2,3-e][1,2,4]triazolo[4,3-a]pyrimidine]	200 to 2000 nM	
